# Results as given in US20040038419A1, “Assays and kits for detecting the presence of nitriles and/or cyanide” (priority 2002, published 2004).
# Tests used:
# Assay type in all cases: biochemical
# Conditions in all cases: lyophilized nitrilase lysate added; OPA or NDA as fluorogenic reagent
# [1] = test system: nitrilase having SEQ ID NO: 190; test: OPA/NDA fluorescence assay of nitrile hydrolysis by lyophilized nitrilase lysate
# From the text: FIG. 5A illustrates detection curves for assays of pivaldehyde aminonitrile (PAH), PAH combined with a lyophilized nitrilase lysate having a SEQ ID NO: 190 (“PAH+SEQ ID NO: 190”), acetophenone aminonitrile (APA), and APA combined with a lyophilized nitrilase lysate having a SEQ ID NO: 190 (“APA+SEQ ID NO: 190”), all using OPA as the fluorogenic reagent.
# FIG. 5B illustrates detection curves for PAH, PAH combined with a lyophilized nitrilase lysate having a SEQ ID NO: 190 (“PAH+SEQ ID NO: 190”), APA, and APA combined with a lyophilized nitrilase lysate having a SEQ ID NO: 190 (“APA+SEQ ID NO: 190”), all using naphthalene dicarboxyaldehyde (NDA) as the fluorogenic reagent.
# (§1) In assays using certain substrates, naphthalene dicarboxaldehyde (NDA) was substituted for OPA as the fluorescing agent. Calibration curves for APA, PAH, HPA and DMB, with either OPA or NDA were constructed (see FIGS. 5A, 5B, 5C and 5D). To determine sensitivity and background fluorescence, lyophilized nitrilase lysates with SEQ ID NOS: 190, 56, and 60 were added, respectively.
# [2] = test system: nitrilase of SEQ ID NO: 56; test: OPA/NDA fluorescence assay of nitrile hydrolysis by nitrilase
# From the text: (§2) FIG. 5C illustrates detection curves for hydroxylpivaldehyde aminonitrile (HPA), HPA combined with a nitrilase of SEQ ID NO: 56(“HPA+SEQ ID NO: 56”), dimethylbutanal aminonitrile (DMB), and DMB combined with a nitrilase of SEQ ID NO: 60 (“DMB+SEQ ID NO: 60”), all using OPA as the fluorogenic reagent.
# (§3) FIG. 5D illustrates detection curves for HPA, HPA combined with a nitrilase of SEQ ID NO: 56 (“HPA+SEQ ID NO: 56”), DMB, and DMB combined with a nitrilase of SEQ ID NO: 60 (“DMB+SEQ ID NO: 60”), all using NDA as the fluorogenic reagent.
# as §1
# [3] = test system: nitrilase of SEQ ID NO: 60; test: as above
# From the text: as §2, §3, §1
molecule,measurement,setting,value
"CC(N)(C#N)c1ccccc1 (stereo not drawn) [APA, acetophenone aminonitrile]",hydrolysis of the enzyme substrate,[1],Hydrolysis was detected
"CC(C)(CO)C(N)C#N (stereo not drawn) [HPA, hydroxylpivaldehyde aminonitrile]",hydrolysis of the enzyme substrate,[2],Hydrolysis was detected
dimethylbutanal aminonitrile [DMB],hydrolysis of the enzyme substrate,[3],Hydrolysis was detected
